Results published in patent publication US20030006516A1, “Optical data storage medium containing a heterocyclic azo dye as the light-absorbing compound in the information layer” (priority 2001, published 2003).

Tests used:
Type in all cases: physicochemical
[1] = Absorption spectrum measured in solution (λmax, ε, slope width, solvatochromism)
Description: For a recordable optical data storage medium according to the invention which is recorded on and read using light from a blue laser, such heterocyclic azo dyes are preferred whose absorption maximum λmax2 is in the range from 420 to 550 nm, […] half the extinction value at λmax2, and the wavelength λ1/10, at which the extinction on the short-wavelength slope of the absorption maximum of the wavelength λmax2 is a tenth of the extinction value at λmax2, are preferably in each case no further than 80 nm away from each other.
For a recordable optical data storage medium according to the invention which is recorded on and read using light from a red laser, such heterocyclic azo dyes are preferred whose absorption maximum λmax2 is in the range from 500 to 650 nm, wherein the wavelength λ1/2 at which the extinction on the long-wavelength slope of the absorption maximum of the wavelength λmax2 is half the extinction value at λmax2, and the wavelength λ1/10, at which the extinction on the long-wavelength slope of the absorption maximum of the wavelength λmax2 is a tenth of the extinction value at λmax2, are preferably in each case no further than 60 nm away from each other.
At the absorption maximum λmax2 the heterocyclic azo dyes preferably have a molar extinction coefficient E of >25000 l/mol cm, preferably >35000 l/mol cm, particularly preferably >40000 l/mol cm and very particularly preferably >50000 l/mol cm.
The absorption spectra are, for example, measured in solution.
Suitable heterocyclic azo dyes having the required spectral properties are in particular those in which the change in the dipole moment Δμ=|μg−μag|, i.e. the positive difference between the dipole moments in the ground state and the first excited state is as small as possible, i.e. preferably <5 D, and particularly preferably <2 D. One method of determining such a change in the dipole moment Δμ is described for example in F. Würthner et al., Angew. Chem. 1997, 109, 2933 and in the literature cited therein. Low solvatochromism (dioxan/DMF) is also a suitable criterion for selection. Preferred heterocyclic azo dyes are those whose solvatochromism Δλ=|λDMFλdioxan|, i.e. the positive difference between the absorption wavelengths in the solvents dimethyl formamide and dioxan is <20 nm, particularly preferably <10 nm, and very particularly preferably <5 nm.

[2] = Film formation (morphology of the dye layer)
Excerpt: In addition to the abovementioned optical properties, the recordable information layer consisting of light-absorbing organic substances must have a morphology which is as amorphous as possible, in order to keep the noise signal during recording or reading as small as possible. For this purpose it is particularly preferable, when applying the substances by spin-coating from a solution or by vapour deposition and/or sublimation, to prevent crystallization of the light-absorbing substances during the subsequent top-coating with metallic or dielectric layers in vacuo.

[3] = Solubility in TFP (2,2,3,3-tetrafluoropropanol)
Excerpt: Solubility: >2% in TFP (2,2,3,3-tetrafluoropropanol)

- λ1/2-λ1/10 (long-wave slope) ([1]; Example 1, long-wave slope): 22 nm
- ε ([1]; Example 1, molar extinction coefficient at λmax): 44140 L/mol/cm
- λmax ([1]; Example 1, solvent not given): 496 nm
- Δλ=|λDMF−λdioxan| ([1]; solvatochromism DMF vs dioxan): 2 nm
- film [2]: a glassy film
- Solubility [3]: > 2%
SMILES: CC(C)N(c1nnc(/N=N/c2cnc(N(C)C)s2)s1)C(C)C [Example 1]
